Assay results published in patent US6737383B1, “Herbicidal oxadiazolidines” (priority 1999, dated 2004).

Experiments:
rape = test: Test B pre/postemergence rape; format: in vivo, Brassica napus
In short: (§1)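 Herbicidal effect was estimated by eye on a ten-point control scale after plants spent twelve to sixteen days in a greenhouse following soil or foliar treatment. Foliar sprays targeted plants at one to four leaves; all doses were formulated in a non-phytotoxic solvent with surfactant.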

corn = test: Test B pre/postemergence corn; format: in vivo, Zea mays
In short: as §1

velvetleaf = test: Test B pre/postemergence velvetleaf; format: in vivo, Abutilon theophrasti
In short: as §1

duck salad = test: Test B flood test duck salad; format: in vivo, Heteranthera limosa; conditions: Pre-emergence
In short: (§2)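 Each value is a visual injury score relative to controls, with 10 meaning complete control and 0 no effect. Evaluation took place twelve to sixteen days after the 2-leaf-stage plants were treated and kept in the greenhouse.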

pigweed = test: Test B pre/postemergence pigweed; format: in vivo, Amaranthus retroflexus
In short: as §1

blackgrass = test: Test B pre/postemergence blackgrass; format: in vivo, Alopecurus myosuroides
In short: as §1

bedstraw = test: Test B pre/postemergence bedstraw; format: in vivo, Galium aparine
In short: as §1

wild oat = test: Test B pre/postemergence wild oat; format: in vivo, Avena fatua
In short: as §1

rice = test: Test B flood test rice; format: in vivo, Oryza sativa; conditions: Pre-emergence
In short: as §2

soybean = test: Test B pre/postemergence soybean; format: in vivo, Glycine max
In short: as §1

smallflower flatsedge = test: Test B flood test smallflower flatsedge; format: in vivo, Cyperus difformis; conditions: Pre-emergence
In short: as §2

crabgrass = test: Test B pre/postemergence crabgrass; format: in vivo, Digitaria sanguinalis
In short: as §1

wheat = test: Test B pre/postemergence wheat; format: in vivo, Triticum aestivum
In short: as §1

surinam grass = test: Test B pre/postemergence surinam grass; format: in vivo, Brachiaria decumbens
In short: as §1

sugar beet = test: Test B pre/postemergence sugar beet; format: in vivo, Beta vulgaris
In short: as §1

purple nutsedge = test: Test B pre/postemergence purple nutsedge; format: in vivo, Cyperus rotundus
In short: as §1

[1] = Preemergence, Rate 62 g/ha, scale of 0 to 10 where 0 is no effect and 10 is complete control
[2] = Preemergence, Rate 250 g/ha, scale of 0 to 10 where 0 is no effect and 10 is complete control
[3] = Preemergence, Rate 500 g/ha, scale of 0 to 10 where 0 is no effect and 10 is complete control
[4] = Rate 62 g/ha, Postemergence, scale 0 to 10, 0 no effect, 10 complete control
[5] = Rate 125 g/ha, Postemergence, scale of 0 to 10 where 0 is no effect and 10 is complete control
[6] = Rate 250 g/ha, Postemergence, scale of 0 to 10 where 0 is no effect and 10 is complete control
[7] = Rate 500 g/ha, Postemergence, scale 0 to 10, 0 no effect, 10 complete control
[8] = Rate 1000 g/ha, scale 0 to 10 (0 no effect, 10 complete control)
[9] = Rate 125 g/ha, flood test species, scale 0 to 10 where 0 is no effect and 10 is complete control
[10] = Rate 250 g/ha, flood-test species, scale 0 to 10, 0 is no effect, 10 is complete control

CC(C)N(C(=O)n1oc(=O)n(CC2CCCC2)c1=O)c1ccc(F)cc1 [Compound 322]
3: Redroot pigweed plant response rating (pigweed; [5]) | Plant response rating, Redroot pigweed (pigweed; [6]) | Wild oats plant response rating (wild oat; [3]) | Soybean plant response rating (soybean; [5]) | Plant response rating, Wheat (wheat; [7]) | B. signalgrass plant response rating (surinam grass; [3]) | Plant response rating, B. signalgrass (surinam grass; [7])
4: Plant response rating, Bedstraw (bedstraw; [6]) | Plant response rating, Bedstraw (bedstraw; [7]) | Plant response rating, Soybean (soybean; [6]) | Sugarbeets plant response rating (sugar beet; [3])
7: Blackgrass plant response rating (blackgrass; [3]) | Crabgrass plant response rating (crabgrass; [3])
8: Redroot pigweed plant response rating (pigweed; [2]) | Redroot pigweed plant response rating (pigweed; [3]) | Plant response rating, Blackgrass (blackgrass; [7])
1: Plant response rating, Blackgrass (blackgrass; [6]) | Soybean plant response rating (soybean; [4]) | Crabgrass plant response rating (crabgrass; [1]) | B. signalgrass plant response rating (surinam grass; [2])
2: Rape plant response rating (rape; [3]) | Plant response rating, Velvetleaf (velvetleaf; [7]) | Redroot pigweed plant response rating (pigweed; [4]) | Bedstraw plant response rating (bedstraw; [3]) | Wild oats plant response rating (wild oat; [2]) | Plant response rating, Wild oats (wild oat; [7]) | Crabgrass plant response rating (0 to 10 scale) (crabgrass; Preemergence, Rate 125 g/ha) | Plant response rating, Crabgrass (crabgrass; [6]) | Sugarbeets plant response rating (0 to 10 scale) (sugar beet; Preemergence, Rate 125 g/ha) | Sugarbeets plant response rating (sugar beet; [2]) | Plant response rating, Sugarbeets (sugar beet; [7])
6: Redroot pigweed plant response rating (0 to 10 scale) (pigweed; Preemergence, Rate 125 g/ha) | Plant response rating, Redroot pigweed (pigweed; [7])
5: Blackgrass plant response rating (blackgrass; [2]) | Plant response rating, Soybean (soybean; [7]) | Crabgrass plant response rating (crabgrass; [2]) | Plant response rating, Crabgrass (crabgrass; [7])
0: Rape plant response rating (rape; [1]) | Rape plant response rating (0 to 10 scale) (rape; Preemergence, Rate 125 g/ha) | Rape plant response rating (rape; [2]) | Rape plant response rating (rape; [4]) | Rape plant response rating (rape; [5]) | Plant response rating, Rape (rape; [6]) | Plant response rating, Rape (rape; [7]) | Corn plant response rating (corn; [1]) | Corn plant response rating (0 to 10 scale) (corn; Preemergence, Rate 125 g/ha) | Corn plant response rating (corn; [2]) | Corn plant response rating (corn; [3]) | Corn plant response rating (corn; [4]) | Corn plant response rating (corn; [5]) | Plant response rating, Corn (corn; [6]) | Plant response rating, Corn (corn; [7]) | Velvetleaf plant response rating (velvetleaf; [1]) | Velvetleaf plant response rating (0 to 10 scale) (velvetleaf; Preemergence, Rate 125 g/ha) | Velvetleaf plant response rating (velvetleaf; [2]) | Velvetleaf plant response rating (velvetleaf; [3]) | Velvetleaf plant response rating (velvetleaf; [4]) | Velvetleaf plant response rating (velvetleaf; [5]) | Plant response rating, Velvetleaf (velvetleaf; [6]) | Ducksalad plant response rating (duck salad; [8]) | Ducksalad plant response rating (duck salad; [9]) | Ducksalad plant response rating (duck salad; [10]) | Redroot pigweed plant response rating (pigweed; [1]) | Blackgrass plant response rating (blackgrass; [1]) | Blackgrass plant response rating (0 to 10 scale) (blackgrass; Preemergence, Rate 125 g/ha) | Blackgrass plant response rating (blackgrass; [4]) | Blackgrass plant response rating (blackgrass; [5]) | Bedstraw plant response rating (bedstraw; [1]) | Bedstraw plant response rating (0 to 10 scale) (bedstraw; Preemergence, Rate 125 g/ha) | Bedstraw plant response rating (bedstraw; [4]) | Bedstraw plant response rating (bedstraw; [5]) | Wild oats plant response rating (wild oat; [1]) | Wild oats plant response rating (0 to 10 scale) (wild oat; Preemergence, Rate 125 g/ha) | Wild oats plant response rating (wild oat; [4]) | Wild oats plant response rating (wild oat; [5]) | Plant response rating, Wild oats (wild oat; [6]) | Rice plant response rating (rice; [8]) | Rice plant response rating (rice; [9]) | Rice plant response rating (rice; [10]) | Soybean plant response rating (soybean; [1]) | Soybean plant response rating (0 to 10 scale) (soybean; Preemergence, Rate 125 g/ha) | Soybean plant response rating (soybean; [2]) | Soybean plant response rating (soybean; [3]) | S. Flatsedge plant response rating (smallflower flatsedge; [8]) | S. Flatsedge plant response rating (smallflower flatsedge; [9]) | S. Flatsedge plant response rating (smallflower flatsedge; [10]) | Crabgrass plant response rating (crabgrass; [4]) | Crabgrass plant response rating (crabgrass; [5]) | Wheat plant response rating (wheat; [1]) | Wheat plant response rating (0 to 10 scale) (wheat; Preemergence, Rate 125 g/ha) | Wheat plant response rating (wheat; [2]) | Wheat plant response rating (wheat; [3]) | Wheat plant response rating (wheat; [4]) | Wheat plant response rating (wheat; [5]) | Plant response rating, Wheat (wheat; [6]) | B. signalgrass plant response rating (surinam grass; [1]) | B. signalgrass plant response rating (0 to 10 scale, 0 is no effect, 10 is complete control) (surinam grass; Preemergence, Rate 125 g/ha) | B. signalgrass plant response rating (surinam grass; [4]) | B. signalgrass plant response rating (surinam grass; [5]) | Plant response rating, B. signalgrass (surinam grass; [6]) | Sugarbeets plant response rating (sugar beet; [1]) | Sugarbeets plant response rating (sugar beet; [4]) | Sugarbeets plant response rating (sugar beet; [5]) | Plant response rating, Sugarbeets (sugar beet; [6]) | Nutsedge plant response rating (purple nutsedge; [1]) | Nutsedge plant response rating (0 to 10 scale) (purple nutsedge; Preemergence, Rate 125 g/ha) | Nutsedge plant response rating (purple nutsedge; [2]) | Nutsedge plant response rating (purple nutsedge; [3]) | Nutsedge plant response rating (purple nutsedge; [4]) | Nutsedge plant response rating (purple nutsedge; [5]) | Plant response rating, Nutsedge (purple nutsedge; [6]) | Plant response rating, Nutsedge (purple nutsedge; [7])
